Data reported in publication PMC3364195, “Fractionation of a Herbal Antidiarrheal Medicine Reveals Eugenol as an Inhibitor of Ca^2+-Activated Cl^− Channel TMEM16A” (PLoS ONE, 2012).
Where “and” joins values, the source holds several entries; their conditions need not be identical. Equal entries are not always repeated. Entries after “also recorded” stand apart in the source; their conditions may differ. Each block holds one molecule with its values, some of them ahead of it.

How the values were obtained:
CFTR = target: T1, CFTR (Homo sapiens, UniProt P13569); test: Short-circuit current in FRT cells expressing wild type CFTR; assay type: cell-based; conditions: forskolin 20 µM stimulated
T1 construct: expressed in transfected cells; host or cells: FRT cells
T1 sequence (P13569 whole entry, species assumed): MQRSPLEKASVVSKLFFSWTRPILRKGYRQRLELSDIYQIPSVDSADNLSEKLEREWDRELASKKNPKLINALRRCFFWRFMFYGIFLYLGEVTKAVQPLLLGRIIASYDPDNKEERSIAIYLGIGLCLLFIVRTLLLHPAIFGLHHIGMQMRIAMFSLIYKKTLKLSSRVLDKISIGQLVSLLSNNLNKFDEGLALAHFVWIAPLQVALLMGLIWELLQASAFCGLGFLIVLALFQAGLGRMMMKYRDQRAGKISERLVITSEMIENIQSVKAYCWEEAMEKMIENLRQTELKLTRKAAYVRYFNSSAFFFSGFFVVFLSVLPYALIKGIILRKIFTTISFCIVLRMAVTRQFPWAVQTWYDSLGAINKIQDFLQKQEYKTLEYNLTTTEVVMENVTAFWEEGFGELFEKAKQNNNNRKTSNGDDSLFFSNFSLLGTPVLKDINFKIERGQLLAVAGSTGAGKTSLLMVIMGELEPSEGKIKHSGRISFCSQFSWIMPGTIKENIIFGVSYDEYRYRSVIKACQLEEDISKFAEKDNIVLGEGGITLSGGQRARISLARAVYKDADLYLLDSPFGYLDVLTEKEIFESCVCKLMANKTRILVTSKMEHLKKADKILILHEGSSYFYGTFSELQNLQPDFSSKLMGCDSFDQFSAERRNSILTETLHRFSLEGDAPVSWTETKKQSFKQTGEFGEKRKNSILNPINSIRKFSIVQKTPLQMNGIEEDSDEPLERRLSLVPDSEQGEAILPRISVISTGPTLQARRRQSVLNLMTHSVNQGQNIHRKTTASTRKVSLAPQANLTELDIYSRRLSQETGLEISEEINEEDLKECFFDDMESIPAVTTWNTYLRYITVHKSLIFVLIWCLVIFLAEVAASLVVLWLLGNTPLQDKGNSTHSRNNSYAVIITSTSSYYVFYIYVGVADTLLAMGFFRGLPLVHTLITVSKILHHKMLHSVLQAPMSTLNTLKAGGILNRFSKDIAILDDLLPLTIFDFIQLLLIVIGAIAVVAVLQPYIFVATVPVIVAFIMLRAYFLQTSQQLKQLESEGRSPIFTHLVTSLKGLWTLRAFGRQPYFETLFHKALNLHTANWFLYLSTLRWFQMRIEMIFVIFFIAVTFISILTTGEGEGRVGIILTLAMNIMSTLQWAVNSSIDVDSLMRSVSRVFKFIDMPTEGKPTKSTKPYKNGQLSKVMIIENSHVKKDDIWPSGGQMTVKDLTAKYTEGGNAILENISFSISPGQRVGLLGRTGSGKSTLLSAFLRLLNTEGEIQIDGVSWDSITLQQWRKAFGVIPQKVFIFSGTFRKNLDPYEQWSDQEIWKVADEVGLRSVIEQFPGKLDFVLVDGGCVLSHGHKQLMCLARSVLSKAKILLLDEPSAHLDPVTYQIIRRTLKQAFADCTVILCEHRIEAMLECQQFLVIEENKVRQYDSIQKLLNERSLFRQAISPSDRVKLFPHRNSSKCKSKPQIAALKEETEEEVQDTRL

human TMEM16A [1] = target: T2, human TMEM16A (Homo sapiens, UniProt Q5XXA6); test: Short-circuit current in TMEM16A-expressing FRT cells; assay type: cell-based
T2 sequence (Q5XXA6 1-986): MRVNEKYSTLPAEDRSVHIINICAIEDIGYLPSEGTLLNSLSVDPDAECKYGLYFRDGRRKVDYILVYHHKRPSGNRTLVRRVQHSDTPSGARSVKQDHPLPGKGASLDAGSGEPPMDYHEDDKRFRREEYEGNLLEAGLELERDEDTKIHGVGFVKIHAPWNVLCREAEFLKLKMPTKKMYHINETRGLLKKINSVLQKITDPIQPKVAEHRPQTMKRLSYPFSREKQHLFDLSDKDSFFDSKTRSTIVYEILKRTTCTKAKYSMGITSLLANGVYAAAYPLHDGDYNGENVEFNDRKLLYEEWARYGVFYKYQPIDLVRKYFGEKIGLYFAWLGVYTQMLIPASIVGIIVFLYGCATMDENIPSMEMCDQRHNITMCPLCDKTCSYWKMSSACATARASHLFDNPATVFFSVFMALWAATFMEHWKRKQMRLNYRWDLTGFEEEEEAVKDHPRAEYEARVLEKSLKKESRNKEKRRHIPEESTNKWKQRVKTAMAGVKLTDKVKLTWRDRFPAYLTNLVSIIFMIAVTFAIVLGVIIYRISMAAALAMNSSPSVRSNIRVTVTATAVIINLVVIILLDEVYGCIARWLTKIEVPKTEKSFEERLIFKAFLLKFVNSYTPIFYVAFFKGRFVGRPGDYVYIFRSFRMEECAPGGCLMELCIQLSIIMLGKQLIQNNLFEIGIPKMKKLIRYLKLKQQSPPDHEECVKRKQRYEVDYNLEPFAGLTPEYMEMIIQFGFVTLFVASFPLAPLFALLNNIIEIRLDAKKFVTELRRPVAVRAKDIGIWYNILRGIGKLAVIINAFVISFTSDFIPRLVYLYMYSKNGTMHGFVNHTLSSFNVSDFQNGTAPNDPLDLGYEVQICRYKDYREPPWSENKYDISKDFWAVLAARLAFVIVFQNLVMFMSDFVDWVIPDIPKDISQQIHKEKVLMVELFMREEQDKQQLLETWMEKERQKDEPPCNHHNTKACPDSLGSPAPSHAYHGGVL
Procedure: (§1) FRT cells stably expressing human TMEM16A and the halide sensor YFP-H148Q/I152L/F46L were generated as described. Cells were plated in 96-well black-walled microplates (Corning Inc., Corning, NY) at a density of 20,000 cells per well in Coon's modified F12 medium supplemented with 5% fetal calf serum, 2 mM L-glutamine, 100 U/mL penicillin and 100 µg/mL streptomycin. T84 cells were cultured in DMEM/Ham's F-12 (1∶1) medium containing 10% FBS, 100 U/ml penicillin and 100 µg/ml streptomycin. A commercially available Thai herbal formulation (Krisanaklan, Osotspa Inc., Bangkapi, Thailand) consists of an ethanol/water (54∶46) extract in which each 100 mL was obtained from 10 g of Aquilaria crassna bark, 33.3 g of clove flower bud, 2 g of Terminalia triptera Stapf bark and 4.8 g of camphor flower bud. HPLC grade solvents were purchased from Fisher Scientific (Fairlawn, VA) and EMD Chemical Inc. (Philadelphia, PA). Eugenol and eugenol analog 2 were purchased from Sigma-Aldrich (St. Louis, MO). Other eugenol analogs were purchased from Fisher Scientific (Pittsburgh, PA).
(§2) Snapwell inserts containing TMEM16A-expressing FRT cells or T84 cells were mounted in Ussing chambers (Physiologic Instruments, San Diego, CA). Activators and inhibitors (herbal formulation, eugenol, ionomycin, tannic acid, forskolin, CFTRinh-172, ATP, Eact, T16Ainh-A01) were added to the apical solution and an equal volume of vehicle was added at the same time to the basolateral solution. Symmetrical HCO3 ^−-buffered solutions were used for T84 cells. For FRT cells, the hemichambers were filled with a half-Cl^− solution (apical) and the HCO3 ^−-buffered solution (basolateral), and the basolateral membrane was permeabilized with 250 µg/mL amphotericin B. Cells were bathed for a 10 min stabilization period and aerated with 95% O2/5% CO2 at 37°C or room temperature. Short-circuit current was measured using an EVC4000 Multi-Channel V/I Clamp (World Precision Instruments, Sarasota, FL).

mouse ileum = test: Intestinal smooth muscle contraction, mouse ileal segments ex vivo
Procedure: Wild type CD1 mice (age 8–10 weeks) were killed by avertin overdose (200 mg/kg). The ileum was removed and washed with ice-cold HCO3 ^−-buffered solution. The ends of the ileal segments were tied with silk thread and connected to a force transducer. Ileal segments were equilibrated for 60 min with a resting force of ∼1 mN, with changes of the bathing solution every 15 min. […] Data were recorded using MP100, Biopac digital acquisition system and analyzed using Acknowledge 3.5.7 software.

human TMEM16A [2] = target: T2, human TMEM16A; test: Plate-reader YFP fluorescence assay of TMEM16A-mediated I- influx in FRT cells; assay type: cell-based
Procedure: as §1, with “HPLC grade solvents were purchased from Fisher Scientific (Fairlawn, VA) and EMD Chemical Inc. (Philadelphia, PA). Eugenol and eugenol analog 2 were purchased from Sigma-Aldrich (St. Louis, MO). Other eugenol analogs were purchased from Fisher Scientific (Pittsburgh, PA).” left out
YFP fluorescence measurements in TMEM16A expressing FRT cells were carried out on a fluorescence plate reader (Optima; BMG Labtech, Durham, NC) equipped with dual syringe pumps and 500±10 nm excitation and 535±15 nm emission filters as described. […] After 10 min incubation, each well was assayed individually for TMEM16A-mediated I^− influx by recording fluorescence continuously (400 ms per point) for 2 s (baseline), followed by addition of 100 µL of a 140 mM I^− solution containing 200 µM ATP. The initial rate of I^− influx was computed from fluorescence data by non-linear regression.

tracheal smooth muscle = system: tracheal smooth muscle; parameters: method as in PMID 21077946; conditions: read-out: IC50 for inhibition of tracheal smooth muscle contraction; cited from earlier work
[3] = system: cytoplasmic Ca2+ elevation in FRT cells; test: Cytoplasmic Ca2+ measurement (Fluo-4) in FRT cells; assay type: cell-based; conditions: Fluo-4 fluorescence, 10 min incubation
Procedure: FRT cells in 96-well plates were loaded with Fluo-4 NW (Invitrogen, Carlsbad, CA) at 48 h after plating. Fluo-4 fluorescence was measured continuously using a FLUOstar Optima fluorescence plate reader (BMG Labtechnologies) equipped with syringe pump for addition of ATP.

TMEM16A = test: Whole-cell patch-clamp on TMEM16A-expressing FRT cells; assay type: cell-based, human; conditions: 150 µM eugenol, 5 µM Eact, ±80 mV
Procedure: Whole-cell recordings were made at room temperature on TMEM16A-expressing FRT cells as described. The pipette solution contained (in mM): 130 CsCl, 0.5 EGTA, 1 MgCl2, 1 Tris-ATP, and10 HEPES (pH 7.2). The bath solution contained (in mM): 140 NMDG-Cl, 1 CaCl2, 1 MgCl2, 10 glucose and 10 HEPES (pH 7.4). TMEM16A was activated by 5 µM Eact and then inhibited by 150 µM eugenol. Whole-cell currents were elicited by applying hyperpolarizing and depolarizing voltage pulses from a holding potential of 0 mV to potentials between −80 mV and +80 mV in 20 mV steps. Currents were digitized, filtered at 5 kHz, and sampled at 1 kHz.

[4] = system: Ca2+ current in cardiac myocytes; parameters: method as in PMID 15550789; conditions: read-out: IC50 for inhibition of Ca2+ current; cited from earlier work
[5] = cited from earlier work
[6] = system: hyperpolarization-activated cyclic nucleotide-gated Na+ and K+ channels; parameters: method as in earlier work; conditions: trigeminal ganglion neurons; ref 27 (Yeon et al.); read-out: IC50 for inhibition of HCN channels; cited from earlier work
[7] = system: CaCC in T84 human colonic epithelial cells; test: Short-circuit current in T84 cells (ATP-stimulated native CaCC Cl- current); assay type: cell-based; conditions: 100 µM tannic acid
Procedure: as §2

[8] = rat, oral 40 mg/kg, ref 30 (Lionnet et al.)

Molecule: O=C(O)c1ccc(/C=C2\SC(=S)N(c3cccc(C(F)(F)F)c3)C2=O)cc1 [CFTRinh-172, reference compound]
inhibition of CFTR Cl- current (CFTR; 10 µM CFTRinh-172): completely inhibited

Molecule: C=CCc1ccc(O)c(OC)c1 [compound 1, 4-allyl-2-methoxyphenol]
IC50 (mouse ileum; Mus musculus, read-out: IC50 for inhibition of intestinal smooth muscle contraction): ~150 µM
inhibition of ileal contractions following activation by Eact (mouse ileum; atropine added initially): inhibition
effect on contraction frequency (mouse ileum; mouse ileal segments ex vivo): small effect
effect on resting and maximal tone (mouse ileum; mouse ileal segments ex vivo): more marked effect
inhibition of spontaneous intestinal contractions (mouse ileum; mouse ileal segments ex vivo, listed as Eugenol): strong inhibition
inhibition of spontaneous intestinal contractions (mouse ileum; mouse ileal segments ex vivo, listed as eugenol): inhibited by eugenol in a dose-dependent manner
effect on CFTR Cl- conductance (CFTR; eugenol up to 1 mM): little effect
inhibition at 200 µM (human TMEM16A [2]; FRT): 51 ± 7%
IC50 (tracheal smooth muscle): ~600 µM
effect on cytoplasmic Ca2+ in response to ATP [3]: did not inhibit
block mechanism of TMEM16A chloride current (TMEM16A): voltage-independent block
IC50 [4]: ~300 µM
serum concentration following intravenous administration ([5]; intravenous): 180000 nM
concentration in brain and spinal cord after oral administration [5, 8]: 2800 nM
concentration in serum after oral administration [5, 8]: 600 nM
serum concentration (similar oral study) ([5]; rats): 1500 nM
IC50 [6]: 157 µM
extent of inhibition of TMEM16A Cl- conductance (human TMEM16A [1]): fully inhibited
inhibition at 1000 µM (human TMEM16A [1]; FRT, read-out: inhibition of TMEM16A at 1 mM): > 95%
IC50 (human TMEM16A [1]; IC50 for inhibition of TMEM16A Cl- current, Eact (10 µM)-stimulated short-circuit current, FRT cells): 154 µM and ~150 µM
inhibition of ionomycin-activated TMEM16A Cl- current (human TMEM16A [1]; eugenol added 5 min prior to 1 µM ionomycin, amphotericin B permeabilized, Cl- gradient): concentration-dependent inhibition

Molecule: tannic acid
inhibition of ATP-stimulated CaCC Cl- current [7]: completely inhibited

Further lines, with some results ahead:

inhibition of TMEM16A Cl- current by 1 µM T16Ainh-A01 (human TMEM16A [1]; 1 µM): ~50%
Molecule: CCc1c(C)nc(SCC(=O)Nc2nc(-c3ccc(OC)cc3)cs2)[nH]c1=O [T16Ainh-A01, reference compound]
inhibition of Eact-stimulated TMEM16A Cl- current (human TMEM16A [1]; Eact 10 µM, 10 µM T16Ainh-A01): completely inhibited; also recorded: totally inhibited

% inhibition at 200 μM (human TMEM16A [2]): 38 ± 7%
Molecule: CCCc1ccc(O)c(OC)c1 [compound 5]
